From article PMC3368886, “ATPase Cycle and DNA Unwinding Kinetics of RecG Helicase” (PLoS ONE, 2012)

Columns and labels:
Assay type in all cases: biochemical
RecG [1] = biological target: T1, RecG (Thermotoga maritima, UniProt Q9WY48); assay: Phosphate-water oxygen exchange during hydrolysis; settings: for k +3 /k −2: γ-18O3 nucleotide, 25°C
T1 construct: made in house
T1 sequence (Q9WY48 1-780): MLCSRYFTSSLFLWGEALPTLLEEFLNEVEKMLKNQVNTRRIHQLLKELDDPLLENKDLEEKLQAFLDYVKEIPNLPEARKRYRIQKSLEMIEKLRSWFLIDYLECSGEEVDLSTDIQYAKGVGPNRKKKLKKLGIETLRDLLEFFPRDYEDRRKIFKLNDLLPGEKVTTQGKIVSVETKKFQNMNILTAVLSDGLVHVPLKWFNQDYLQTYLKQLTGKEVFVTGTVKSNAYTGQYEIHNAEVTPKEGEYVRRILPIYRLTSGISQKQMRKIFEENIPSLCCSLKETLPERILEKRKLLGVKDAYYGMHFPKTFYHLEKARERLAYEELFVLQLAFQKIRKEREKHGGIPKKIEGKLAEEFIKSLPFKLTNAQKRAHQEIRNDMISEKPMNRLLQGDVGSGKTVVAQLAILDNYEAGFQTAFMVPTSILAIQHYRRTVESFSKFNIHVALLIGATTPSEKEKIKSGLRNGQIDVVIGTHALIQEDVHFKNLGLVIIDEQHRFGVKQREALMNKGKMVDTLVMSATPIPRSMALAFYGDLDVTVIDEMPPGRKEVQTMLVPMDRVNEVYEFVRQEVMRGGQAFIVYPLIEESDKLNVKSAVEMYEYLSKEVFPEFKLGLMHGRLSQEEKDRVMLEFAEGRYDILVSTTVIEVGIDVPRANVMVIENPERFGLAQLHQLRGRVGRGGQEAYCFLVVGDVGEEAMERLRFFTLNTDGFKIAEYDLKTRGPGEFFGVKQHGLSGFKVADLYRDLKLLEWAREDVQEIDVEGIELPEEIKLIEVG
Text: In order to get information about the reverse of cleavage step 2 (scheme in Figure 2A), phosphate-water oxygen exchange measurements were done using (γ-^18O3)mantATP. Intermediate exchange can occur between terminal oxygens of the nucleotide and water during hydrolysis, giving information about the value of k +3 /k −2, as previously described. In this case, (γ-^18O3)mantATP was used as substrate and partial hydrolysis occurred in the presence of RecG⋅DNA, as described in the materials and methods section. The Pi had very similar distribution of oxygen-18 as with (γ-^18O3)mantATP, consistent with essentially little reversal of the cleavage step (k +3 /k −2≥9). This is consistent with a rapid release of Pi.
For intermediate exchange during ATP hydrolysis, 0.5 µM RecG and 1 mM (γ-^18O3)ATP or (γ-^18O3)mantATP were incubated for 10 min (+1 µM DNA A40∶B40, Table S1) or 20 min (- DNA) at 25°C in a volume of 100 µl in the buffer described below. Pi was analyzed for distribution of different ^18O-labeled species on a mass spectrometer as described previously, [37] except that during purification, the ^18O-labeled Pi was detected by MDCC-PBP, rather than radioactive tracers.
Supplementary file pone.0038270.s005.pdf: Table S2 Oxygen exchange during ATP or mantATP hydrolysis by RecG: distributions of oxygen-18 in the Pi product. Experiments were performed as described in Materials and Methods. The data were corrected for isotopic enrichment of the starting nucleotide, 93% for (γ-^18O3)mantATP and 98% for (γ-^18O3) ATP. […] Each distribution is the average of three mass spectral assays. Thus the distributions are for the product Pi as though the starting enrichment was 100%. In all cases there was very little oxygen exchange as shown by the large peak of (^18O3)Pi, in which all three γ-oxygens of ATP are retained. The distributions were then used to compute the ratio of rate constants for Pi release (k +3) and on-enzyme ATP resynthesis (k −2) as in Figure 2 [14], [37].

RecG [2] = biological target: T1, RecG; assay: Steady-state ATPase rate measurements with phosphate biosensor MDCC-PBP; settings: for K m / k cat: 20°C, 10 nM RecG, 500 nM DNA junction (A40:B40)
Text: Steady-state measurements were made to gain an overall assessment of the reaction and the affinities of various nucleotides before investigating the individual steps in the ATPase cycle. A two-strand DNA junction, which contains two 20-bp regions of complementary and non-complementary sequences (A40:B40 Figure 1 and Table S1), was used in all these measurements. This forms a Y-shape structure and RecG translocates one single-stranded arm, but then remains bound to the end of the junction still hydrolyzing ATP [10].
All reactions with RecG and DNA were done at 20°C in a buffer containing 50 mM Tris⋅acetate (pH 8.0), 30 mM potassium acetate, 3 mM magnesium acetate and 1 mM DTT. ATPase measurements using MDCC-PBP were taken in the presence of a Pi mop, as described above. Steady-state ATPase measurements were taken in a solution (60 µl) at 20°C, containing 10 nM RecG, 500 nM DNA junction (A40∶B40, see Table S1) and 10 µM MDCC-PBP with varying nucleotide concentrations as substrate or inhibitor [23].

RecG [3] = biological target: T1, RecG; assay: mantATP cleavage (acid quench) and Pi release in the absence of DNA
Procedure: As done for the RecG⋅DNA complex, measurements were also taken with an excess of RecG over mantATP (Figure S3B). A large, relative rapid, increase in mant fluorescence was observed followed by a small gradual increase. The rate constants are consistent with those at excess mantATP. Under the same conditions of excess RecG over mantATP, mantATP cleavage (acid quench) and Pi release were measured (Figure S3B). […] The cleavage step rate constant was 4×10^−4 s^−1, ∼10^3 slower than in the presence of DNA. […] The cleavage step was greatly stimulated by DNA.
Supplementary file pone.0038270.s003.tif: Figure S3 Kinetic measurements in the absence of DNA. (A) Association kinetics with mantATP. Dependence of the observed rate constants on mantATP concentration from mixing 0.5 µM RecG with excess mantATP under the same conditions as Figure 3. Points shown are typically an average of three individual measurements. The best linear fit gives a slope of 0.4 (±0.15) µM^−1 s^−1 and intercept 1.7 (±0.6) s^−1. (B) Fluorescence trace upon mixing 2.5 µM RecG with 0.5 µM mantATP under the conditions of Figure 4. […] Note that as the fluorescence slowly increases beyond the time course, it was not possible to calibrate the ordinate. […] Pi release kinetics (continuous line) were measured for the same mixture containing 10 µM MDCC-PBP. […]

Row | Structure (SMILES) | (18O1)Pi in product Pi (RecG [1]; DNA present) [%] | (18O2)Pi in product Pi (RecG [1]; DNA present) [%] | (18O3)Pi in product Pi (RecG [1]; DNA present) [%] | k +3 /k −2 (RecG [1]; DNA present (A40∶B40)) | (18O1)Pi in product Pi (RecG [1]; no DNA) [%] | (18O2)Pi in product Pi (RecG [1]; no DNA) [%] | (18O3)Pi in product Pi (RecG [1]; no DNA) [%] | k +3 /k −2 (RecG [1]; no DNA) | K m (RecG [2]) | k cat (RecG [2]) | cleavage step rate constant (RecG [3]; absence of DNA, excess RecG over mantATP) [s⁻¹] | cleavage slower than in the presence of DNA (RecG [3]; absence vs presence of DNA) | lower ATPase activity than ATP (RecG [2]; mantATP vs ATP) [fold]
1 | Nc1ncnc2c1ncn2[C@@H]1O[C@H](COP(=O)(O)OP(=O)(O)OP(=O)(O)O)[C@@H](O)[C@H]1O [ATP] | 2.8 | 2.3 | 94.9 | 18 | 6.1 | 4.0 | 89.9 | 9.0 | 9 (±2) µM | 8.3 (±1.7) s^−1 |  |  | 
2 | CNc1ccccc1C(=O)O[C@H]1[C@@H](O)[C@H](n2cnc3c(N)ncnc32)O[C@@H]1COP(=O)(O)OP(=O)(O)OP(=O)(O)O [mantATP, 2′(3′)-O-(N-methylanthraniloyl)ATP] | 0.4 | 7.5 | 92.1 | 8.7 | 0.4 | 7.0 | 92.6 | 9.5 | 1.9 (±0.6) µM | 0.3 (±0.1) s^−1 | 0.0004 | ~10^3 | 30
